From article PMC12257542, “A Radiolabeled Photoswitchable G Protein-Coupled Receptor Antagonist Enlightens Ligand Binding Kinetics Associated with Photoswitching” (Journal of the American Chemical Society, 2025)

What was measured:
[1] = Detailed photochemical characterization of 3f (1H NMR, UV-vis switching cycles); format: physicochemical
Procedure: Figure S10. Photochemical properties of 3f. (A) UV-vis spectra of 25 µM 3f in HBSS buffer containing 1% DMSO in the dark, after illumination to PSScis with 365 ± 10 nm for 2 min and after subsequent illumination to PSStrans with 506 ± 20 nm for 2 min. (B) Representative parts of LC−MS chromatograms of 3f in the dark, after illumination with 365 ± 10 nm for 300 s to reach PSScis and subsequently with 506 ± 20 nm for 300 s to reach PSStrans (full chromatograms […]
(C) Part of 1H NMR spectra of 10 mM 3f in DMSO-d6 (representing the two aromatic signals) in the dark, after illumination with 365 ± 10 nm for 600 s to reach PSScis and subsequently 506 ± 20 nm for 900 s to reach PSStrans (full spectra are shown in Figure S12). (D) Reversible isomerization cycles of 25 µM 3f in HBSS buffer containing 1% DMSO, repeatedly illuminated for 30 s with 365 ± 10 nm to reach PSScis and subsequently for […]
60 s with 506 ± 20 nm to reach PSStrans. […]
states in the 400-550 nm area (Figure S10A). This allows efficient trans-PSScis photoswitching in HBSS buffer using UV light (365 nm) and PSScis-PSStrans back-switching with green light (506 nm). LC-MS analysis (Figure S10B, S11) and, more quantitively, 1H NMR analysis (Figure S10C, S12) reveal high PSScis and PSStrans values for 3f (98% and >95% cis isomer for PSScis by LC-MS and 1H NMR analysis, respectively; 93% and 93% trans isomer for PSStrans by LC-MS and 1H NMR analysis, respectively). These analyses also confirmed that no photodecomposition occurs upon illumination with either 365 or 506 nm. Reversible isomerization cycles could be conducted in HBSS buffer without any photobleaching (Figure […]
S10D). […] Subsequently, the […]
UV−Vis spectra were recorded using a Thermo-scientific Evolution 201 PC spectrophotometer equipped with a thermostated cell holder set at 20 °C. […] The light intensity used for the lambda 10-3 optical filter is 0.93 mW/mm2 using the 360 ± 20 nm filter, 0.79 mW/mm2 for the 434 ± 9 nm filter, 0.77 mW/mm2 for the 494 ± 9 nm filter as measured using a Thorlabs PM16−401 power meter. […]

[2] = target: T1, H1R (Homo sapiens, UniProt P35367); test: Histamine receptor selectivity binding, [3H]mepyramine competition on cell homogenates expressing H1R; details: trans isomer; at concentrations lower than 1 μM; competition with [3H]mepyramine
T1 construct: HA; expressed in transfected cells; host or cells: HEK293T, transient transfection (pcDEF3), cell homogenates

[3] = Photostationary state area percentages by LC-MS at the isosbestic point; format: physicochemical

T1 sequence (P35367 whole entry): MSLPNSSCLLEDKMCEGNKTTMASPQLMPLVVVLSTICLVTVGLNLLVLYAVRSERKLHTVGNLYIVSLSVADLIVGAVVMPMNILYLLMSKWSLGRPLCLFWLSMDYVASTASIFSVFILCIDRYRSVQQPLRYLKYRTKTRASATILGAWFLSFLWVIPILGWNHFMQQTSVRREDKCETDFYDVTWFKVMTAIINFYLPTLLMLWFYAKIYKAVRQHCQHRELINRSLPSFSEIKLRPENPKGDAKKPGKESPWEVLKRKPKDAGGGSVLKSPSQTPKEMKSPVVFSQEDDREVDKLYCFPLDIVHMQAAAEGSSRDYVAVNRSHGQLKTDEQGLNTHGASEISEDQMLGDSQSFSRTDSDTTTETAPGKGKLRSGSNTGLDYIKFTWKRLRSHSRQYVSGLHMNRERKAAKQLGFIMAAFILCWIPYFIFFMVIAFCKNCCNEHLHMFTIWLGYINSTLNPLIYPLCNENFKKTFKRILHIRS

Cc1nn(C2CCN(C)CC2)c(C)c1/N=N/c1ccc(O[C@H]2C[C@H](N3CCCCC3)C2)cc1 [Compound 3f]
PSScis (% cis isomer) by 1H NMR ([1]; 10 mM in DMSO-d6, 365 ± 10 nm for 600 s): > 95%
PSStrans (% trans isomer) by 1H NMR ([1]; 10 mM in DMSO-d6, 506 ± 20 nm for 900 s): 93%
photodecomposition upon illumination ([1]; illumination with either 365 or 506 nm, LC-MS and 1H NMR): no
binding to H1R [2]: does not bind
PSScis (area %cis) ([3]; after illumination of trans isomer with 365 ± 10 nm at 1 mM in DMSO for 10 min): 98 area %
PSStrans (area %trans) ([3]; illumination of PSS cis state with 506 ± 20 nm at 1 mM in DMSO for 10 min): 93 area %
